What all share (format): functional
Test [1] has as its system Rhynchophorus ferrugineus. As to the kind of experiment: Pesticidal activity against Rhynchophorus ferrugineus (red palm weevil) cocoon assessed as mortality at 1.5 ppm administered by dipping for 3 min measured at 24 hr post-treatment relative to control.
For test [2], the system named is Rhynchophorus ferrugineus. Description: Pesticidal activity against Rhynchophorus ferrugineus (red palm weevil) cocoon assessed as mortality at 20 ppm administered by dipping for 3 min measured at 24 hr post-treatment relative to control.
Test [3] has as its system Rhynchophorus ferrugineus. Description: Pesticidal activity against Rhynchophorus ferrugineus (red palm weevil) larvae assessed as mortality at 2 ppm, po at 114 hr post-treatment relative to control.
For test [4], the system named is Rhynchophorus ferrugineus. As to the kind of experiment: Pesticidal activity against Rhynchophorus ferrugineus (red palm weevil) larvae assessed as mortality at 1 ppm, po at 90 hr post-treatment relative to control.
The subject of test [5] is Rhynchophorus ferrugineus. As to the kind of experiment: Pesticidal activity against Rhynchophorus ferrugineus (red palm weevil) larvae assessed as mortality at 1.5 ppm, po at 90 hr post-treatment relative to control.
Test [6] concerns Rhynchophorus ferrugineus. As to the kind of experiment: Pesticidal activity against adult Rhynchophorus ferrugineus (red palm weevil) assessed as mortality at 300 ppm administered topically at 18 hr post-treatment.
For test [7], the system named is Rhynchophorus ferrugineus. Description: Pesticidal activity against Rhynchophorus ferrugineus (red palm weevil) cocoon assessed as mortality at 4 ppm administered by dipping for 3 min measured at 114 hr post-treatment relative to control.
The test system of test [8] is Rhynchophorus ferrugineus. As to the kind of experiment: Pesticidal activity against Rhynchophorus ferrugineus (red palm weevil) cocoon assessed as mortality at 1.5 ppm administered by dipping for 3 min measured at 90 hr post-treatment relative to control.
Test [9] relates to Rhynchophorus ferrugineus. As to the kind of experiment: Contact toxicity against Rhynchophorus ferrugineus (red palm weevil) adults assessed as time required for 50% mortality at 3.5 ml/l for 5 min.
Test [10] concerns Rhynchophorus ferrugineus. Description: Contact toxicity against Rhynchophorus ferrugineus (red palm weevil) adults assessed as time required for 100% reversible knockdown at 2.5 ml/l for 5 min.
The test system of test [11] is Rhynchophorus ferrugineus. As to the kind of experiment: Contact toxicity against Rhynchophorus ferrugineus (red palm weevil) adults assessed as time required for 100% reversible knockdown at 3.5 ml/l for 2 min.
The subject of test [12] is Rhynchophorus ferrugineus. Description: Contact toxicity against Rhynchophorus ferrugineus (red palm weevil) adults assessed as time required for 50% reversible knockdown at 3.5 ml/l for 2 min.
Test [13] relates to Rhynchophorus ferrugineus. As to the kind of experiment: Pesticidal activity against adult Rhynchophorus ferrugineus (red palm weevil) assessed as mortality at 2 ppm, po at 90 hr post-treatment relative to control.
In test [14] the test system is Rhynchophorus ferrugineus. Description: Pesticidal activity against adult Rhynchophorus ferrugineus (red palm weevil) assessed as mortality at 1.5 ppm, po at 24 hr post-treatment relative to control.
In test [15] the test system is Rhynchophorus ferrugineus. As to the kind of experiment: Pesticidal activity Rhynchophorus ferrugineus (red palm weevil) larvae assessed as time required after hatching for 100% mortality at 2.5 ml/l administered topically measured up to 14 days relative to control.
Test [16] concerns Rhynchophorus ferrugineus. As to the kind of experiment: Pesticidal activity against Rhynchophorus ferrugineus (red palm weevil) cocoons assessed as mortality at 3.5 ml/l administered by dipping for 3 min measured within 3 days.
Test [17] concerns Rhynchophorus ferrugineus. Description: Pesticidal activity against Rhynchophorus ferrugineus (red palm weevil) cocoons assessed as time required for total mortality at 1.5 ml/l administered by dipping for 5 secs.
For test [18], the system named is Rhynchophorus ferrugineus. Description: Pesticidal activity against Rhynchophorus ferrugineus (red palm weevil) larvae assessed as mortality at 500 ppm administered topically at 36 hr post-treatment.

Turning to `O=[N+]([O-])/N=C1\NCCN1Cc1ccc(Cl)nc1` [IMIDACLOPRID], the Activity in test [1] came out at 0%; in [2], 0%; in [3], 100%; in [4], 100%; in [5], 100%; in [6], 72.2%. The Activity is 72.2% in test [7]; 44.4% in [8]; 100% in test [13]; 72.2% in test [14]; 76.7% in [16]; 38.9% in [18]. Moreover, the Time is 2.2 days in [9]; 2.2 days in [10]; 3.2 days in [11]; 1.1 days in test [12]; 6 days in [15]; 14.5 days in test [17].
